Results as given in ChEMBL document CHEMBL1122994, “Effect of structural modification of the hydantoin ring on anticonvulsant activity” (J Med Chem, 1985).
Calls of active or inactive are those of the source. The rule behind the calls is not given here.

Experiments:
Mus musculus [1] = assay: Anticonvulsant activity was evaluated by subcutaneous pentylenetetrazole (Metrazol) (sc Met) seizure test at dose 600 mg/kg; No activity; format: functional
Mus musculus [2] = assay: Anticonvulsant activity was evaluated by Neurologic toxicity (the rotarod test) at dose 600 mg/kg; No activity; format: functional
Mus musculus [3] = assay: Anticonvulsant activity was evaluated by maximal electroshock seizure (MES) test at dose 600 mg/kg; 1=Noticeable activity; format: functional
Mus musculus [4] = assay: Anticonvulsant activity was evaluated by Neurologic toxicity (the rotarod test) at dose 600 mg/kg; 1=Noticeable activity; format: functional
Mus musculus [5] = species on record: Mus musculus; assay: Effective dose was evaluated by maximal electroshock seizure (MES) test; format: functional
Mus musculus [6] = assay: Effective dose was evaluated by subcutaneous pentylenetetrazole (Metrazol) (sc Met) seizure test; format: functional
Mus musculus [7] = assay: Anticonvulsant activity was evaluated by maximal electroshock seizure (MES) test at dose 100 mg/kg; 3=Noticeable activity; format: functional
[8] = Toxic dose was evaluated by neurological toxicity (the rotarod test); format: organism-based; settings: mouse, in vivo
Mus musculus [9] = assay: Anticonvulsant activity was evaluated by subcutaneous pentylenetetrazole (Metrazol) (sc Met) seizure test at dose 100 mg/kg; 3=Noticeable activity; format: functional
Mus musculus [10] = assay: Anticonvulsant activity was evaluated by maximal electroshock seizure (MES) test at dose 600 mg/kg; No activity; format: functional
Mus musculus [11] = assay: Anticonvulsant activity was evaluated by subcutaneous pentylenetetrazole (Metrazol) (sc Met) seizure test at dose 300 mg/kg; 2=Noticeable activity; format: functional
Mus musculus [12] = assay: Anticonvulsant activity was evaluated by maximal electroshock seizure (MES) test at dose 300 mg/kg; 2=Noticeable activity; format: functional
Mus musculus [13] = assay: Anticonvulsant activity was evaluated by subcutaneous pentylenetetrazole (Metrazol) (sc Met) seizure test at dose 600 mg/kg; 1=Noticeable activity; format: functional
Mus musculus [14] = assay: Anticonvulsant activity was evaluated by Neurologic toxicity (the rotarod test) at dose 300 mg/kg; 2=Noticeable activity; format: functional
Mus musculus [15] = assay: Effective dose was evaluated by subcutaneous pentylenetetrazole (Metrazol) (sc Met) seizure test; NE means not effective; format: functional, organism-based
Mus musculus [16] = assay: Anticonvulsant activity was evaluated by subcutaneous pentylenetetrazole (Metrazol) (sc Met) seizure test at dose 30 mg/kg; format: functional

O=C1NCC(O)N1Cc1ccccc1 (centres undefined)
Activity (Mus musculus [1]): 0
Activity (Mus musculus [2]): 0
Activity (Mus musculus [3]): 1

Cc1cn(-c2ccccc2)c(O)n1
Activity (Mus musculus [1]): 0
Activity (Mus musculus [3]): 1
Activity (Mus musculus [4]): 1

CN1C(=O)NC(c2ccccc2)C1=O (centres undefined)
ED50 (Mus musculus [5]): 75 mg/kg
ED50 (Mus musculus [6]): 26 mg/kg
Activity (Mus musculus [7]): 3
TD50 [8]: 271 mg/kg
Activity (Mus musculus [9]): 3
Activity (Mus musculus [4]): 1

CNC(=O)C(N)c1ccccc1 (centres undefined)
Activity (Mus musculus [1]): 0
Activity (Mus musculus [2]): 0
Activity (Mus musculus [10]): 0

COc1cccc(CN2C(=O)NC(C)(C)C2O)c1 (centres undefined)
Activity (Mus musculus [1]): 0
Activity (Mus musculus [2]): 0
Activity (Mus musculus [3]): 1

O=C1NC(c2ccccc2)C(O)N1c1ccccc1 (centres undefined)
Activity (Mus musculus [1]): 0
Activity (Mus musculus [2]): 0
Activity (Mus musculus [10]): 0

Oc1nc(-c2ccccc2)cn1Cc1ccccc1
Activity (Mus musculus [1]): 0
Activity (Mus musculus [2]): 0
Activity (Mus musculus [10]): 0

CC1C(=O)N(C)C(=O)N1C (centres undefined)
Activity (Mus musculus [2]): 0
Activity (Mus musculus [11]): 2
Activity (Mus musculus [10]): 0

O=C1NC(=O)C(c2ccccc2)N1 (centres undefined)
Activity (Mus musculus [12]): 2
ED50 (Mus musculus [5]): 156 mg/kg
ED50 (Mus musculus [6]): 109 mg/kg
TD50 [8]: 399 mg/kg
Activity (Mus musculus [9]): 3
Activity (Mus musculus [4]): 1

CC1NC(=O)N(c2ccccc2)C1O (centres undefined)
Activity (Mus musculus [13]): 1
Activity (Mus musculus [3]): 1
Activity (Mus musculus [4]): 1

COc1cc2c(cc1OC)C1N(CC2)C(=O)NC1(C)C (centres undefined)
Activity (Mus musculus [1]): 0
Activity (Mus musculus [10]): 0
Activity (Mus musculus [4]): 1

O=C1CNC(=O)N1c1ccccc1
Activity (Mus musculus [1]): 0
Activity (Mus musculus [2]): 0
Activity (Mus musculus [3]): 1

NC(=O)NC(=O)Cc1ccccc1 [PHENACEMIDE]
ED50 (Mus musculus [5]): 87 mg/kg

COc1ccc2c(c1)CCCN1C(=O)NC(C)(C)C21 (centres undefined)
Activity (Mus musculus [1]): 0
Activity (Mus musculus [2]): 0
Activity (Mus musculus [10]): 0

O=C1NC(c2ccccc2)C(=O)N1Cc1ccccc1 (centres undefined)
Activity (Mus musculus [1]): 0
Activity (Mus musculus [2]): 0
Activity (Mus musculus [10]): 0

Cc1cn(C)c(O)n1
Activity (Mus musculus [1]): 0
Activity (Mus musculus [2]): 0
Activity (Mus musculus [10]): 0

O=C1CNC(=O)N1Cc1ccccc1
ED50 (Mus musculus [5]): 65 mg/kg
Activity (Mus musculus [14]): 2
ED50 (Mus musculus [6]): 114 mg/kg
Activity (Mus musculus [11]): 2
Activity (Mus musculus [7]): 3
TD50 [8]: 224 mg/kg

O=C1NC(c2ccccc2)C(=O)N1c1ccccc1 (centres undefined)
Activity (Mus musculus [1]): 0
Activity (Mus musculus [2]): 0
Activity (Mus musculus [10]): 0

CC1NC(=O)N(C)C1O (centres undefined)
Activity (Mus musculus [1]): 0
Activity (Mus musculus [2]): 0
Activity (Mus musculus [10]): 0

CNC(C)CNCc1ccccc1 (centres undefined)
Activity (Mus musculus [1]): 0
Activity (Mus musculus [14]): 2
Activity (Mus musculus [10]): 0

Cn1ccnc1O
Activity (Mus musculus [1]): 0
Activity (Mus musculus [2]): 0
Activity (Mus musculus [10]): 0

CC1NC(=O)N(C)C1=O (centres undefined)
Activity (Mus musculus [1]): 0
Activity (Mus musculus [2]): 0
Activity (Mus musculus [10]): 0

CN1CC(c2ccccc2)NC1=O (centres undefined)
Activity (Mus musculus [13]): 1
Activity (Mus musculus [12]): 2
Activity (Mus musculus [14]): 2

CC1(C)NC(=O)N(CCc2ccccc2)C1O (centres undefined)
Activity (Mus musculus [13]): 1
Activity (Mus musculus [3]): 1
Activity (Mus musculus [4]): 1

Oc1nccn1-c1ccccc1
ED50 (Mus musculus [5]): 124 mg/kg
Activity (Mus musculus [14]): 2
ED50 (Mus musculus [6]): 173 mg/kg
Activity (Mus musculus [11]): 2
Activity (Mus musculus [7]): 3
TD50 [8]: 211 mg/kg

CN1C(=O)NC(c2ccccc2)C1O (centres undefined)
Activity (Mus musculus [13]): 1
Activity (Mus musculus [2]): 0
Activity (Mus musculus [11]): 2

CCC1(c2ccccc2)NC(=O)N(C)C1=O (centres undefined) [MEPHENYTOIN]
ED50 (Mus musculus [5]): 61 mg/kg
ED50 (Mus musculus [6]): 31 mg/kg

O=C1NCC(O)N1c1ccccc1 (centres undefined)
Activity (Mus musculus [1]): 0
Activity (Mus musculus [2]): 0
Activity (Mus musculus [10]): 0

CC1NC(=O)N(c2ccccc2)C1=O (centres undefined)
Activity (Mus musculus [1]): 0
Activity (Mus musculus [10]): 0
Activity (Mus musculus [4]): 1

COc1cccc(CCCN2C(=O)NC(C)(C)C2O)c1 (centres undefined)
Activity (Mus musculus [12]): 2
Activity (Mus musculus [11]): 2
Activity (Mus musculus [4]): 1

CC1NC(=O)NC1=O (centres undefined)
Activity (Mus musculus [1]): 0
Activity (Mus musculus [2]): 0
Activity (Mus musculus [10]): 0

CC1NC(=O)N(Cc2ccccc2)C1O (centres undefined)
Activity (Mus musculus [13]): 1
Activity (Mus musculus [12]): 2
Activity (Mus musculus [4]): 1

O=C1NC(=O)C(c2ccccc2)(c2ccccc2)N1 [PHENYTOIN]
ED50 (Mus musculus [5]): 10 mg/kg
ED50 (Mus musculus [15]): inactive

COc1cccc(CCCN2C(=O)NC(C)(C)C2=O)c1
Activity (Mus musculus [13]): 1
Activity (Mus musculus [12]): 2
Activity (Mus musculus [14]): 2

CC1NC(=O)N(Cc2ccccc2)C1=O (centres undefined)
Activity (Mus musculus [16]): 4
Activity (Mus musculus [11]): 2
Activity (Mus musculus [4]): 1

COc1cccc(CN2C(=O)NC(C)(C)C2=O)c1
Activity (Mus musculus [1]): 0
Activity (Mus musculus [2]): 0
Activity (Mus musculus [3]): 1

Oc1nc(-c2ccccc2)cn1-c1ccccc1
Activity (Mus musculus [2]): 0
Activity (Mus musculus [11]): 2
Activity (Mus musculus [10]): 0

CNCC(NC)c1ccccc1 (centres undefined)
Activity (Mus musculus [1]): 0
Activity (Mus musculus [14]): 2
Activity (Mus musculus [10]): 0

Cn1cc(-c2ccccc2)nc1O
Activity (Mus musculus [13]): 1
Activity (Mus musculus [2]): 0
Activity (Mus musculus [3]): 1

Cc1cn(Cc2ccccc2)c(O)n1
Activity (Mus musculus [12]): 2
ED50 (Mus musculus [5]): 90 mg/kg
Activity (Mus musculus [11]): 2
TD50 [8]: 268 mg/kg
Activity (Mus musculus [4]): 1

Cc1cn(C)c(=O)n1C
Activity (Mus musculus [1]): 0
Activity (Mus musculus [2]): 0
Activity (Mus musculus [10]): 0

CN1C(=O)NCC1O (centres undefined)
Activity (Mus musculus [1]): 0
Activity (Mus musculus [2]): 0
Activity (Mus musculus [10]): 0

CC(=O)NC(C)C(=O)NCc1ccccc1 (centres undefined)
Activity (Mus musculus [1]): 0
ED50 (Mus musculus [5]): 77 mg/kg
Activity (Mus musculus [7]): 3
Activity (Mus musculus [4]): 1

CNC(=O)C(NC(C)=O)c1ccccc1 (centres undefined)
Activity (Mus musculus [1]): 0
Activity (Mus musculus [2]): 0
Activity (Mus musculus [10]): 0

CC1(C)NC(=O)N(CCc2ccccc2)C1=O
ED50 (Mus musculus [5]): 110 mg/kg
Activity (Mus musculus [14]): 2
ED50 (Mus musculus [6]): 130 mg/kg
Activity (Mus musculus [11]): 2
Activity (Mus musculus [7]): 3
TD50 [8]: 243 mg/kg

CC1C(O)N(C)C(=O)N1C (centres undefined)
Activity (Mus musculus [1]): 0
Activity (Mus musculus [2]): 0
Activity (Mus musculus [10]): 0

CN1C(=O)CNC1=O
Activity (Mus musculus [1]): 0
Activity (Mus musculus [2]): 0
Activity (Mus musculus [10]): 0

CC1(C)NC(=O)N2C=Cc3ccccc3C21 (centres undefined)
Activity (Mus musculus [12]): 2
Activity (Mus musculus [14]): 2
Activity (Mus musculus [11]): 2

CC(N)C(=O)NCc1ccccc1 (centres undefined)
Activity (Mus musculus [1]): 0
Activity (Mus musculus [12]): 2
Activity (Mus musculus [14]): 2

O=C1NC(c2ccccc2)C(O)N1Cc1ccccc1 (centres undefined)
Activity (Mus musculus [1]): 0
Activity (Mus musculus [2]): 0
Activity (Mus musculus [10]): 0
